Reference: publication PMC7332385 (Journal of the American Society for Mass Spectrometry, 2020)
Like-named read-outs stand apart in the source and are kept apart here.

Legend:
β-2-microglobulin (β2m) [1] = settings: read-out: Kd for Cu(II) bound to β2m, cited from earlier work
[2] = biological target: Cu(II)-β2m (β-2-microglobulin) (Homo sapiens, UniProt P61769); test: CL-MS ligand titration of Cu; format: binding; settings: read-out: Cu(II)-β2m and EGCG Kd; DEPC (120 μM) labeling of the N-terminal amine; 30 μM β2m, 60 μM Cu(II); triplicate
β-2-microglobulin (β2m) [3] = settings: read-out: EGCG-β2m Kd; from size exclusion chromatography data; cited from earlier work

Cu(II)-β2m (β-2-microglobulin), sequence (P61769 21-119): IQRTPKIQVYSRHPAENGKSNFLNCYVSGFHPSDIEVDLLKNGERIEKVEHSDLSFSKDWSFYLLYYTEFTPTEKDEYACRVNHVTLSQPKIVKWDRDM

SMILES | Kd (β-2-microglobulin (β2m) [1]; in the presence of EGCG) | Kd (β-2-microglobulin (β2m) [1]; without EGCG) | Kd [2] | Kd (β-2-microglobulin (β2m) [3])
O=S(=O)([O-])[O-].[Cu+2] [Cu(II), copper sulfate] | 49 µM | 3 µM | – | –
O=C(O[C@@H]1Cc2c(O)cc(O)cc2O[C@@H]1c1cc(O)c(O)c(O)c1)c1cc(O)c(O)c(O)c1 [EGCG, epigallocatechin gallate] | – | – | 12 ± 5 µM | 6 µM
